Data taken from patent publication US20150105252A1, “SUBSTITUTED PYRAZOLES AS HERBICIDES” (E I DU PONT DE NEMOURS AND COMPANY, priority 2013, published 2015).

Columns and labels:
[1] = system: barnyardgrass; test: Test A postemergence; type: in vivo, Echinochloa crus-galli; details: Postemergence, 1000 g ai/ha; visual rating after approx. 10 days, 0 to 100 scale (0 no effect, 100 complete control)
In short: (§1)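 Pre- and postemergence greenhouse test; loam+sand; cpd in non-phytotox. solvent/surfactant; post at 1–2 leaf, 2–10 cm; visual score ~10 d, 0 = none, 100 = complete control.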

[2] = system: barnyardgrass; test: Test A preemergence; type: in vivo, Echinochloa crus-galli; details: Preemergence, 1000 g ai/ha; 0 to 100 scale, 0 no effect, 100 complete control
In short: as §1

[3] = system: morningglory; test: Test A postemergence; type: in vivo, Ipomoea spp.; details: Postemergence, 1000 g ai/ha; visual rating after approx. 10 days, 0 to 100 scale (0 no effect, 100 complete control)
In short: as §1

[4] = system: crabgrass, large; test: Test A postemergence; type: in vivo, Digitaria sanguinalis; details: Postemergence, 1000 g ai/ha; visual rating after approx. 10 days, 0 to 100 scale (0 no effect, 100 complete control)
In short: as §1

[5] = system: wheat; test: Test A preemergence; type: in vivo, Triticum aestivum
In short: as §1

[6] = system: velvetleaf; test: Test A postemergence; type: in vivo, Abutilon theophrasti; details: Postemergence, 1000 g ai/ha; visual rating after approx. 10 days, 0 to 100 scale (0 no effect, 100 complete control)
In short: as §1

[7] = system: morningglory; test: Test A preemergence; type: in vivo, Ipomoea spp.; details: Preemergence, 1000 g ai/ha; 0 to 100 scale, 0 no effect, 100 complete control
In short: as §1

[8] = system: foxtail, giant; test: Test A postemergence; type: in vivo, Setaria faberii; details: Postemergence, 1000 g ai/ha; visual rating after approx. 10 days, 0 to 100 scale (0 no effect, 100 complete control)
In short: as §1

[9] = system: velvetleaf; test: Test A preemergence; type: in vivo, Abutilon theophrasti; details: Preemergence, 1000 g ai/ha; 0 to 100 scale, 0 no effect, 100 complete control
In short: as §1

[10] = system: corn; test: Test A postemergence; type: in vivo, Zea mays; details: Postemergence, 1000 g ai/ha; visual rating after approx. 10 days, 0 to 100 scale (0 no effect, 100 complete control)
In short: as §1

[11] = system: pigweed; test: Test A postemergence; type: in vivo, Amaranthus retroflexus; details: Postemergence, 1000 g ai/ha; visual rating after approx. 10 days, 0 to 100 scale (0 no effect, 100 complete control)
In short: as §1

[12] = system: wheat; test: Test A postemergence; type: in vivo, Triticum aestivum; details: Postemergence, 1000 g ai/ha; visual rating after approx. 10 days, 0 to 100 scale (0 no effect, 100 complete control)
In short: as §1

[13] = system: corn; test: Test A preemergence; type: in vivo, Zea mays; details: Preemergence, 1000 g ai/ha; 0 to 100 scale, 0 no effect, 100 complete control
In short: as §1

[14] = system: pigweed; test: Test A preemergence; type: in vivo, Amaranthus retroflexus; details: Preemergence, 1000 g ai/ha; 0 to 100 scale, 0 no effect, 100 complete control
In short: as §1

[15] = system: crabgrass, large; test: Test A preemergence; type: in vivo, Digitaria sanguinalis; details: Preemergence, 1000 g ai/ha; 0 to 100 scale, 0 no effect, 100 complete control
In short: as §1

[16] = system: foxtail, giant; test: Test A preemergence; type: in vivo, Setaria faberii; details: Preemergence, 1000 g ai/ha; 0 to 100 scale, 0 no effect, 100 complete control
In short: as §1

[17] = Preemergence, 1000 g ai/ha, 0 to 100 scale, 0 no effect, 100 complete control
[18] = preemergence, 500 g ai/ha, visual injury after approx. 10 days, 0 to 100 scale (0 no effect, 100 complete control)

CCc1cc(C(=O)NC(C)(C)C)nn1Cc1cccc(OC(F)(F)F)c1 [Compound 59]
Barnyardgrass plant response rating [1]: 10
Barnyardgrass plant response rating [2]: 0
Morningglory plant response rating [3]: 50
Crabgrass, Large plant response rating [4]: 10
Wheat plant response rating [5, 17]: 0
Wheat plant response rating [5, 18]: 10
Velvetleaf plant response rating [6]: 10
Morningglory plant response rating [7]: 0
Foxtail, Giant plant response rating [8]: 20
Velvetleaf plant response rating [9]: 0
Corn plant response rating [10]: 10
Pigweed plant response rating [11]: 50
Wheat plant response rating [12]: 0
Corn plant response rating [13]: 0
Pigweed plant response rating [14]: 0
Crabgrass, Large plant response rating [15]: 10
Foxtail, Giant plant response rating [16]: 10

CCc1cc(C(=O)NCC(C)C)nn1Cc1cccc(OC(F)(F)F)c1 [Compound 60]
Barnyardgrass plant response rating [1]: 20
Barnyardgrass plant response rating [2]: 30
Morningglory plant response rating [3]: 100
Crabgrass, Large plant response rating [4]: 30
Wheat plant response rating [5, 17]: 0
Wheat plant response rating [5, 18]: 0
Velvetleaf plant response rating [6]: 60
Morningglory plant response rating [7]: 20
Foxtail, Giant plant response rating [8]: 40
Velvetleaf plant response rating [9]: 0
Corn plant response rating [10]: 30
Pigweed plant response rating [11]: 60
Wheat plant response rating [12]: 20
Corn plant response rating [13]: 0
Pigweed plant response rating [14]: 90
Crabgrass, Large plant response rating [15]: 90
Foxtail, Giant plant response rating [16]: 100

CCc1cc(C(=O)N(C)OC)nn1Cc1cccc(C(F)(F)F)c1 [Compound 66]
Barnyardgrass plant response rating [1]: 20
Barnyardgrass plant response rating [2]: 0
Morningglory plant response rating [3]: 50
Crabgrass, Large plant response rating [4]: 20
Wheat plant response rating [5, 17]: 0
Wheat plant response rating [5, 18]: 0
Velvetleaf plant response rating [6]: 40
Morningglory plant response rating [7]: 30
Foxtail, Giant plant response rating [8]: 40
Velvetleaf plant response rating [9]: 20
Corn plant response rating [10]: 30
Pigweed plant response rating [11]: 50
Wheat plant response rating [12]: 10
Corn plant response rating [13]: 0
Pigweed plant response rating [14]: 50
Crabgrass, Large plant response rating [15]: 50
Foxtail, Giant plant response rating [16]: 100
